We go through 33 compounds from patent US12365655B2, “Compounds” (CTXT PTY LTD, priority 2018, dated 2025).

What is called IC50 is the point on the concentration scale where inhibition reaches its midpoint. High values mean weaker potency in that assay, low ones greater potency in that assay.

For one test, the target named is TIP60-KAT5 (Homo sapiens, UniProt Q92993). The test is described as follows: Acetyltransferase biochemical assay (AlphaScreen), KAT5. A general note: Alpha assays give light when donor and acceptor beads are brought close together.
Sequence of TIP60-KAT5 (Q92993 with tags, fused parts or gaps isoform Q92993-2): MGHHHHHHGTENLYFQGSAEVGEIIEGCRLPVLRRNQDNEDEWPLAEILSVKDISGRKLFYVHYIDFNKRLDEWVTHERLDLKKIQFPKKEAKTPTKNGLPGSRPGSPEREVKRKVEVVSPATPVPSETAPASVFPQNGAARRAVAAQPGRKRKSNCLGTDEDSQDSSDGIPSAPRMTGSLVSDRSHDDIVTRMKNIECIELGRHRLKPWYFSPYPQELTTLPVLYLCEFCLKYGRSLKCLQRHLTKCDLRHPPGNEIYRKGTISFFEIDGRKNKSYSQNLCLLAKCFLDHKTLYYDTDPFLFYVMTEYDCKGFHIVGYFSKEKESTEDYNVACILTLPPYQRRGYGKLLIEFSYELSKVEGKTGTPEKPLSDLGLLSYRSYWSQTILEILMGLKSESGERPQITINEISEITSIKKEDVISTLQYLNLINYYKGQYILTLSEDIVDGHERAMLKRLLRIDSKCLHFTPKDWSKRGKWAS
The target in the next test is HBO-KAT7 (Homo sapiens, UniProt O95251). The test is described as follows: Acetyltransferase biochemical assay (AlphaScreen), KAT7.
Sequence of HBO-KAT7 (O95251 with tags, fused parts or gaps): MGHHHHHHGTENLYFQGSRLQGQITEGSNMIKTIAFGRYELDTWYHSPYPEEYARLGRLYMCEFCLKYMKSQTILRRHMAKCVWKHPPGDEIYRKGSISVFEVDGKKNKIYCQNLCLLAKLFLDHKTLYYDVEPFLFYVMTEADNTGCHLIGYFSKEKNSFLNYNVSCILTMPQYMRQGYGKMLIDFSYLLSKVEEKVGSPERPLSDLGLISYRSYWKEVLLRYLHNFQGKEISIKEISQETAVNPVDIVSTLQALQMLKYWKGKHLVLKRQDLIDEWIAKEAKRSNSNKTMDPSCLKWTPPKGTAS
Another test has as its target MOZ-KAT6A (Homo sapiens, UniProt Q92794, A567V). As to the kind of experiment: Acetyltransferase biochemical assay (AlphaScreen), KAT6A.

Sequence of MOZ-KAT6A (Q92794 with tags, fused parts or gaps A567V): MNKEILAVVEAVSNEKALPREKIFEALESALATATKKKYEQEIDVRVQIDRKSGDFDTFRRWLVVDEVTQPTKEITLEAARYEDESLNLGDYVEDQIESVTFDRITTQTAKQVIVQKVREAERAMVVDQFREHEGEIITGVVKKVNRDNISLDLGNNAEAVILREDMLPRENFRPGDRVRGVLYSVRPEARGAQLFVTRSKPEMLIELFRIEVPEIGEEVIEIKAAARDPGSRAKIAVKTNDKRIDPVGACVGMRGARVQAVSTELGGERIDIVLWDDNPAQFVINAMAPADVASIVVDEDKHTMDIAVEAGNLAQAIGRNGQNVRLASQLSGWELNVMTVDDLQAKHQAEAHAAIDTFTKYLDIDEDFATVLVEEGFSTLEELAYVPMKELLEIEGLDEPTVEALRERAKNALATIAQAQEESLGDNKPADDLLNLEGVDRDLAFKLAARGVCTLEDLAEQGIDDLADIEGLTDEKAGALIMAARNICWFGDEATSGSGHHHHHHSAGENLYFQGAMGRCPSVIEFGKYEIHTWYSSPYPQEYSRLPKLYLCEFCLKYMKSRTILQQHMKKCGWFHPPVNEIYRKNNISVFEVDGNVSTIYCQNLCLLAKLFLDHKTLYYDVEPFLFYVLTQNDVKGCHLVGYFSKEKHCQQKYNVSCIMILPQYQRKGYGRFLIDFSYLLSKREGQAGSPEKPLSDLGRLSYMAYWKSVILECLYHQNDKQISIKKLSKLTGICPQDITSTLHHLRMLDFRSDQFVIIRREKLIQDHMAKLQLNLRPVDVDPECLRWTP

Consider `Cc1ccc(S(=O)(=O)Nc2noc3cccc(Cl)c23)cc1Cl` [Example 31, 3-chloro-N-(4-chlorobenzo[d]isoxazol-3-yl)-4-methylbenzenesulfonamide], for which the IC50 was above 125 µM at TIP60-KAT5, 53.6 µM against HBO-KAT7 and 36.1 µM at MOZ-KAT6A.

As to `O=S(=O)(Nc1noc2cccc(Cl)c12)c1cccc(S(F)(F)(F)(F)F)c1` [Example 36, N-(4-chlorobenzo [d]isoxazol-3-yl)-3-(pentafluoro-λ^6-sulfanyl)benzene sulfonamide], the IC50 was 39 µM at TIP60-KAT5, 26.3 µM at HBO-KAT7 and 17.7 µM against MOZ-KAT6A.

In the case of `O=S(=O)(Nc1noc2ccccc12)c1ccc(-c2ccccc2)cc1` [Example 69, N-(benzo[d]isoxazol-3-yl)-[1,1-biphenyl]-4-sulfonamide], the IC50 against TIP60-KAT5 was 124 µM; at HBO-KAT7, 94.1 µM; on MOZ-KAT6A, 42.9 µM.

As to `COc1cccc2onc(NS(=O)(=O)c3ccc4c(c3)CCCC4)c12` [Example 84, N-(4-methoxybenzo[d]isoxazol-3-yl)-5,6,7,8-tetrahydro-naphthalene-2-sulfonamide], the IC50 against TIP60-KAT5 is 50.5 µM; on HBO-KAT7 it was 20 µM; on MOZ-KAT6A, 18.7 µM.

As to `COc1cccc2onc(NS(=O)(=O)c3cc(C)cc4cccnc34)c12` [Example 78, N-(4-methoxybenzo[d]isoxazol-3-yl)-6-methyl quinoline-8-sulfonamide], the IC50 is above 125 µM against TIP60-KAT5, above 125 µM against HBO-KAT7 and 93.8 µM on MOZ-KAT6A.

On to `COc1cccc2onc(NS(=O)(=O)c3cccc4c(C)ccnc34)c12` [Example 79, N-(4-methoxybenzo[d]isoxazol-3-yl)-4-methyl quinoline-8-sulfonamide], for which the results for the IC50 against TIP60-KAT5, at HBO-KAT7 and against MOZ-KAT6A were 17.5 µM, 4.06 µM and 13.9 µM, respectively.

Consider `CCc1ccc(OC)c(S(=O)(=O)Nc2noc3ccc(-c4cncnc4)cc23)c1` [Example 238, 5-Ethyl-2-methoxy-N-(5-(pyrimidin-5-yl)benzo[d]isoxazol-3-yl)benzenesulfonamide], for which the results for the IC50 against TIP60-KAT5, against HBO-KAT7 and against MOZ-KAT6A were above 125 µM, 94.2 µM and 12 µM, respectively.

On to `COc1cccc(OCC2CC2)c1S(=O)(=O)Nc1noc2cccc(OC)c12` [Example 215, 2-(Cyclopropylmethoxy)-6-methoxy-N-(4-methoxybenzo[d]isoxazol-3-yl)benzenesulfonamide], for which the IC50 is above 125 µM against TIP60-KAT5, 16.6 µM against HBO-KAT7 and 4.47 µM against MOZ-KAT6A.

For the compound `O=S(=O)(Nc1noc2cccc(Cl)c12)c1ccc2c(c1)CCC2` [Example 44, N-(4-chlorobenzo [d]isoxazol-3-yl)-2,3-dihydro-1H-indene-5-sulfonamide], the values for the IC50 on TIP60-KAT5, against HBO-KAT7 and against MOZ-KAT6A were 60.2 µM, 10.8 µM and 10.6 µM, respectively.

`O=S(=O)(Nc1noc2cccc(Cl)c12)c1cccc(-c2ccccc2)c1` [Example 43, N-(4-chlorobenzo [d]isoxazol-3-yl)-[1,1-biphenyl]-3-sulfonamide]: the IC50 against TIP60-KAT5 was determined as 23 µM; on HBO-KAT7, 12.9 µM; against MOZ-KAT6A, 5.97 µM.

Regarding `CCc1ccc(OC)c(S(=O)(=O)Nc2noc3cc(Br)ccc23)c1` [Example 138], the IC50 at TIP60-KAT5 stood at 5.11 µM; against HBO-KAT7, 3.68 µM; at MOZ-KAT6A, 2.89 µM.

With `COc1cccc2onc(NS(=O)(=O)c3cccc4cccnc34)c12` [Example 83, N-(4-methoxybenzo[d]isoxazol-3-yl)quinoline-8-sulfonamide], the IC50 against TIP60-KAT5 was found to be 17.9 µM; against HBO-KAT7, 3.79 µM; at MOZ-KAT6A, 13.6 µM.

Take `Cn1nc2cccc(S(=O)(=O)Nc3noc4cccc(Cl)c34)c2n1` [Example 6, N-(4-chlorobenzo [d]isoxazol-3-yl)-2-methyl-2H-benzo[d][1,2,3]triazole-4-sulfonamide]: the values for the IC50 against TIP60-KAT5, on HBO-KAT7 and against MOZ-KAT6A were 94.9 µM, 6.28 µM and 30.2 µM, respectively.

With `CCc1ccc(OC)c(S(=O)(=O)Nc2noc3ccc(CNC(=O)OC)cc23)c1` [Example 227, Methyl ((3-((5-ethyl-2-methoxyphenyl)sulfonamido)benzo[d]isoxazol-5-yl)methyl) carbamate], the IC50 at TIP60-KAT5 is above 125 µM; against HBO-KAT7, 63.1 µM; on MOZ-KAT6A, 41.5 µM.

For `CCc1ccc(OC)c(S(=O)(=O)Nc2noc3ccc(CC)cc23)c1` [Example 235], the IC50 came out at 9.04 µM against TIP60-KAT5, 0.82 µM against HBO-KAT7 and 0.395 µM at MOZ-KAT6A.

Take `COc1ccc(C(C)(C)C)cc1S(=O)(=O)Nc1noc2cccc(Cl)c12` [Example 40, 5-(tert-butyl)-N-(4-chlorobenzo[d]isoxazol-3-yl)-2-methoxy benzenesulfonamide]: the IC50 came out at 121 µM against TIP60-KAT5, 19.9 µM on HBO-KAT7 and 2.13 µM on MOZ-KAT6A.

With `CCc1ccc(OC)c(S(=O)(=O)Nc2noc3c(C(=O)NC)cccc23)c1` [Example 184, 3-(5-Ethyl-2-methoxyphenylsulfonamido)-N-methylbenzo[d]isoxazole-7-carboxamide], the IC50 against TIP60-KAT5 was above 125 µM; against HBO-KAT7, 31 µM; on MOZ-KAT6A it was above 125 µM.

Regarding `O=S(=O)(Nc1noc2cccc(Cl)c12)c1ccccc1OC(F)F` [Example 38, N-(4-chlorobenzo [d]isoxazol-3-yl)-2-(difluoromethoxy) benzenesulfonamide], the IC50 against TIP60-KAT5 worked out at 80.1 µM; against HBO-KAT7, 6.7 µM; on MOZ-KAT6A it was 27.5 µM.

For the compound `COc1ccccc1S(=O)(=O)Nc1noc2ccccc12` [Example 58, N-(benzo[d]isoxazol-3-yl)-2-methoxybenzene sulfonamide], the IC50 was above 125 µM at TIP60-KAT5, 16.6 µM against HBO-KAT7 and 28.4 µM against MOZ-KAT6A.

Turning to `COc1cc(-c2cc(OC)c3c(NS(=O)(=O)c4c(OC)cccc4OC)noc3c2)ccn1` [Example 249, 2,6-Dimethoxy-N-(4-methoxy-6-(2-methoxypyridin-4-yl)benzo[d]isoxazol-3-yl)benzenesulfonamide], the IC50 amounted to 69.2 µM against TIP60-KAT5, 0.889 µM at HBO-KAT7 and 1.27 µM against MOZ-KAT6A.

Take `Cc1ccc(S(=O)(=O)Nc2noc3cccc(Cl)c23)cc1` [Example 27, N-(4-chlorobenzo [d]isoxazol-3-yl)-4-methylbenzenesulfonamide]: the IC50 against TIP60-KAT5 is above 125 µM; against HBO-KAT7, 32.1 µM; against MOZ-KAT6A, 71.5 µM.

With `COc1cccc(OC)c1S(=O)(=O)Nc1noc2cc(COCC(F)(F)F)cc(OC)c12` [Example 240, 2,6-Dimethoxy-N-(4-methoxy-6-((2,2,2-trifluoroethoxy)methyl)benzo[d]isoxazol-3-yl)benzenesulfonamide], the IC50 on TIP60-KAT5 came to 122 µM; against HBO-KAT7 it was 10.2 µM; at MOZ-KAT6A, 1.83 µM.

In the case of `COc1cccc(OC(C)C)c1S(=O)(=O)Nc1noc2cccc(OC)c12` [Example 217, 2-Isopropoxy-6-methoxy-N-(4-methoxybenzo[d]isoxazol-3-yl)benzenesulfonamide], the IC50 on TIP60-KAT5 is above 125 µM; against HBO-KAT7 it was 18.4 µM; against MOZ-KAT6A it was 10.2 µM.

For `COc1ccc(OC)c(S(=O)(=O)Nc2noc3ccccc23)c1` [Example 46, N-(benzo[d]isoxazol-3-yl)-2,5-dimethoxybenzene-sulfonamide], the IC50 was above 125 µM against TIP60-KAT5, 74.4 µM against HBO-KAT7 and 36.2 µM against MOZ-KAT6A.

Regarding `COc1ccccc1S(=O)(=O)Nc1noc2cc(Cl)ccc12` [Example 158], the IC50 was above 125 µM on TIP60-KAT5, 44.9 µM on HBO-KAT7 and 62.6 µM on MOZ-KAT6A.

Take `CCc1ccc(OC)c(S(=O)(=O)Nc2noc3ccc(C(=O)NC)cc23)c1` [Example 230, 3-((5-Ethyl-2-methoxyphenyl)sulfonamido)-N-methylbenzo[d]isoxazole-5-carboxamide]: the IC50 is above 125 µM at TIP60-KAT5, 109 µM against HBO-KAT7 and 48.1 µM against MOZ-KAT6A.

Consider `O=S(=O)(Nc1noc2ccccc12)c1cccc(Cl)c1Cl` [Example 60, N-(benzo[d]isoxazol-3-yl)-2,3-dichlorobenzene-sulfonamide], for which the IC50 at TIP60-KAT5 is above 125 µM; against HBO-KAT7 it was above 125 µM; at MOZ-KAT6A it was 116 µM.

For the compound `CCc1cccc(S(=O)(=O)Nc2noc3ccccc23)c1` [Example 52, N-(benzo[d]isoxazol-3-yl)-3-ethylbenzene sulfonamide], the figures for the IC50 against TIP60-KAT5, against HBO-KAT7 and on MOZ-KAT6A were above 125 µM, above 125 µM and 85.3 µM, respectively.

As for `COc1ccc(C)cc1S(=O)(=O)Nc1noc2ccccc12` [Example 47, N-(benzo[d]isoxazol-3-yl)-2-methoxy-5-methyl benzene sulfonamide], the IC50 against TIP60-KAT5 is 123 µM; at HBO-KAT7 it was 29.4 µM; against MOZ-KAT6A, 12.9 µM.

Regarding `COc1ccc(F)cc1S(=O)(=O)Nc1noc2cccc(Cl)c12` [Example 5, N-(4-chlorobenzo [d]isoxazol-3-yl)-5-fluoro-2-methoxybenzene sulfonamide], the IC50 was 114 µM against TIP60-KAT5, 6.01 µM against HBO-KAT7 and 31.3 µM on MOZ-KAT6A.

With `O=S(=O)(Nc1noc2cccc(Cl)c12)c1cccc2cccnc12` [Example 123, N-(4-chlorobenzo[d]isoxazol-3-yl)quinoline-8-sulfonamide], the 50% inhibitory concentration (IC50) came to 59.4 µM against TIP60-KAT5, 4.2 µM against HBO-KAT7 and 26.9 µM against MOZ-KAT6A.

As to `COCc1ccccc1S(=O)(=O)Nc1noc2cccc(Cl)c12` [Example 1, N-(4-chlorobenzo [d]isoxazol-3-yl)-2-(methoxymethyl) benzenesulfonamide], the IC50 is above 125 µM against TIP60-KAT5, 53.9 µM at HBO-KAT7 and 91.4 µM against MOZ-KAT6A.

As to `Cc1c(Cl)cccc1S(=O)(=O)Nc1noc2ccccc12` [Example 59, N-(benzo[d]isoxazol-3-yl)-3-chloro-2-methylbenzene-sulfonamide], the IC50 at TIP60-KAT5 was above 125 µM; on HBO-KAT7, above 125 µM; at MOZ-KAT6A it was 49.4 µM.
